These results are taken from paper PMC9267128, “New 2-[(4-Amino-6-N-substituted-1,3,5-triazin-2-yl)methylthio]-N-(imidazolidin-2-ylidene)-4-chloro-5-methylbenzenesulfonamide Derivatives, Design, Synthesis and Anticancer Evaluation” (International Journal of Molecular Sciences, 2022).

The test system of experiment [1] is HaCaT (human keratinocyte cell line). Kind of experiment: MTT cell viability assay, non-cancerous HaCaT. It is filed as cell-based. The following applies: Homo sapiens, HaCaT, 72 h, 72 h of incubation, non-cancerous keratinocytes. How it is done:
(§1) Compounds 20–162 were evaluated in vitro for their effects on the viability of three cancer cell lines: HCT-116 (colon cancer), MCF-7 (breast cancer) and HeLa (cervical cancer), as well as the non-cancerous keratinocyte cell line (HaCaT). […] Analysis was performed using an MTT assay after 72 h of incubation.
(§2) All chemicals, if not stated otherwise, were obtained from Sigma–Aldrich (St. Louis, MO, USA). The HCT-116 cell line was purchased from ATCC (ATCC-No: CCL-247), while the MCF-7, HeLa and HaCaT cell lines were purchased from Cell Lines Services (Eppelheim, Germany). Cells were cultured in Dulbecco’s modified Eagle’s medium (DMEM) supplemented with 10% fetal bovine serum, 2 mM glutamine, 100 units/mL penicillin and 100 µg/mL streptomycin. Cultures were maintained in a humidified atmosphere with 5% carbon dioxide at 37 °C in an incubator (Heraceus, HeraCell).
(§3) Cell viability was examined using the MTT [3-(4,5-dimethylthiazol-2-yl)-2,5-diphenyltetrazolium bromide] assay. Cells were seeded in 96-well plates at a density of 3 × 10^3 cells/well and treated for 72 h with the tested compounds in the concentration range of 1–100 µM. Then, MTT (0.5 mg/mL) was added to the medium and cells were further incubated for 2 h at 37 °C. In the next stage, cells were lysed with DMSO and the absorbance of the formazan solution was measured at 550 nm with a plate reader (1420 multilabel counter, Victor, Jügesheim, Germany). The experiment was performed in triplicate. Values are expressed as the mean ± SD of at least three independent experiments. Cisplatin was used as a positive control.
(In general: Tetrazolium assays rely on reduction of a dye to a coloured formazan, in cell work by metabolically active cells.)

Experiment [2] relates to HeLa (cervical cancer). Kind of experiment: MTT cell viability assay, HeLa. It is filed as cell-based, human. The following applies: for IC50: Homo sapiens, HeLa, MTT assay, 72 h of incubation; for Selectivity Index (SI) HeLa: IC50 value toward HaCaT cells/IC50 value toward HeLa. The method, then:
(§4) Analysis was performed using an MTT assay after 72 h of incubation.
as §2
as §3, with “experiments.” for “experiments. Cisplatin was used as a positive control.”

In experiment [3] the test system is MCF-7 (breast cancer). Kind of experiment: MTT cell viability assay, MCF-7. The class given is cell-based, human. The following applies: for IC50: Homo sapiens, MCF7, 72 h, MTT assay, 72 h of incubation; for Selectivity Index (SI) MCF-7: IC50 value toward HaCaT cells/IC50 value toward MCF-7. The method, then: as §1, §2, §3
The subject of experiment [4] is HCT-116 (colon cancer). Kind of experiment: MTT cell viability assay, HCT-116. The class given is cell-based, human. To be noted: for IC50: MTT assay, 72 h of incubation; for Selectivity Index (SI) HCT-116: IC50 value toward HaCaT cells/IC50 value toward HCT-116. The method, then: as §4, §2
as §3, with “experiments.” for “experiments. Cisplatin was used as a positive control.”

As a reminder, the IC50 is the concentration at which inhibition is half-maximal.

For `Cc1cc(S(=O)(=O)N=C2NCCN2Cc2ccccc2)c(SCc2nc(N)nc(Nc3ccc(C(F)(F)F)cc3)n2)cc1Cl` [Compound 51], the IC50 in experiment [1] worked out at 220 ± 12 µM; in experiment [2] it was 15 ± 1 µM; in experiment [3], 10 ± 0.5 µM; in experiment [4] (Homo sapiens, HCT-116, 72 h), 19 ± 0.6 µM.

In the case of `COc1ccc(Nc2nc(N)nc(CSc3cc(Cl)c(C)cc3S(=O)(=O)N=C3NCCN3Cc3ccccc3)n2)cc1` [Compound 52], the IC50 in experiment [1] came to 92 ± 3 µM; in experiment [2], 61 ± 2 µM; in experiment [3], 64 ± 2 µM; in experiment [4] (Homo sapiens, HCT-116, 72 h), 37 ± 0.5 µM.

With `Cc1cc(S(=O)(=O)N=C2NCCN2Cc2ccccc2)c(SCc2nc(N)nc(NCc3ccccc3)n2)cc1Cl` [Compound 53], the IC50 in experiment [1] was 81 ± 4 µM; in experiment [2], 85 ± 2 µM; in experiment [3], 11 ± 0.5 µM; in experiment [4] (Homo sapiens, HCT-116, 72 h) it was 10 ± 0.5 µM.

Regarding `Cc1cc(S(=O)(=O)N=C2NCCN2Cc2ccccc2)c(SCc2nc(N)nc(N(C)c3ccccc3)n2)cc1Cl` [Compound 54], the IC50 in experiment [1] worked out at 28 ± 1 µM; in experiment [2], 16 ± 0.2 µM; in experiment [3] it was 12 ± 0.1 µM; in experiment [4] (Homo sapiens, HCT-116, 72 h) it was 11 ± 0.1 µM.

As to `Cc1cc(S(=O)(=O)N=C2NCCN2Cc2ccccc2)c(SCc2nc(N)nc(N(C)c3ccc(Cl)cc3)n2)cc1Cl` [Compound 55], the IC50 in experiment [1] is 39 ± 2 µM; in experiment [2], 13 ± 0.1 µM; in experiment [3], 10 ± 0.2 µM; in experiment [4] (Homo sapiens, HCT-116, 72 h), 7 ± 0.1 µM. Also, in experiment [2], the “Selectivity Index (SI) HeLa” value amounted to 3.0. Besides, the “Selectivity Index (SI) MCF-7” value in experiment [3] was 3.9. Moreover, in experiment [4], the “Selectivity Index (SI) HCT-116” value is given as 5.5.

For `Cc1cc(S(=O)(=O)N=C2NCCN2Cc2ccccc2)c(SCc2nc(N)nc(N3CCN(C)CC3)n2)cc1Cl` [Compound 56], the IC50 in experiment [1] is 58 ± 2 µM; in experiment [2] it was 37 ± 1 µM; in experiment [3], 54 ± 1 µM; in experiment [4] (Homo sapiens, HCT-116, 72 h) it was 22 ± 1 µM.

For the molecule `Cc1cc(S(=O)(=O)N=C2NCCN2Cc2ccccc2)c(SCc2nc(N)nc(N3CCN(c4ccccc4)CC3)n2)cc1Cl` [Compound 57], the IC50 in experiment [1] amounted to 48 ± 2 µM; in experiment [2], 102 ± 2 µM; in experiment [3] it was 8 ± 0.2 µM; in experiment [4] (Homo sapiens, HCT-116, 72 h) it was 8 ± 0.1 µM.

Consider `Cc1cc(S(=O)(=O)N=C2NCCN2Cc2ccccc2)c(SCc2nc(N)nc(N3CCN(c4ccc(F)cc4)CC3)n2)cc1Cl` [Compound 58], for which the IC50 in experiment [1] is 29 ± 1 µM; in experiment [2] it was 14 ± 2 µM; in experiment [3] it was 17 ± 1 µM; in experiment [4] (Homo sapiens, HCT-116, 72 h), 11 ± 0.3 µM.

For `Cc1cc(S(=O)(=O)N=C2NCCN2Cc2ccccc2)c(SCc2nc(N)nc(N3CCN(c4ccccc4F)CC3)n2)cc1Cl` [Compound 59], the IC50 in experiment [1] is 30 ± 1 µM; in experiment [2] it was 15 ± 1 µM; in experiment [3], 18 ± 1 µM; in experiment [4] (Homo sapiens, HCT-116, 72 h) it was 13 ± 0.3 µM.

For the molecule `Cc1cc(S(=O)(=O)N=C2NCCN2Cc2ccccc2)c(SCc2nc(N)nc(N3CCN(c4ccc(C(F)(F)F)cc4)CC3)n2)cc1Cl` [Compound 60], the IC50 came to 23 ± 1 µM in experiment [1]; 9 ± 0.5 µM in experiment [2]; 14 ± 0.3 µM in experiment [3]; 8 ± 0.3 µM in experiment [4] (Homo sapiens, HCT-116, 72 h).

As for `Cc1cc(S(=O)(=O)N=C2NCCN2Cc2ccccc2)c(SCc2nc(N)nc(N3CCN(c4cccc(C(F)(F)F)c4)CC3)n2)cc1Cl` [Compound 61], the IC50 in experiment [1] is 21 ± 1 µM; in experiment [2], 10 ± 0.2 µM; in experiment [3] it was 9 ± 0.3 µM; in experiment [4] (Homo sapiens, HCT-116, 72 h) it was 6.5 ± 0.1 µM.

As for `Cc1cc(S(=O)(=O)N=C2NCCN2Cc2ccccc2)c(SCc2nc(N)nc(N3CCN(c4cccc(Cl)c4)CC3)n2)cc1Cl` [Compound 63], the IC50 stood at 24 ± 1 µM in experiment [1]; 12 ± 0.5 µM in experiment [2]; 9 ± 0.5 µM in experiment [3]; 7 ± 0.1 µM in experiment [4] (Homo sapiens, HCT-116, 72 h).

For `Cc1cc(S(=O)(=O)N=C2NCCN2Cc2ccccc2)c(SCc2nc(N)nc(N3CCN(c4ccc(Cl)c(Cl)c4)CC3)n2)cc1Cl` [Compound 64], the IC50 in experiment [1] was 28 ± 1 µM; in experiment [2], 15 ± 1 µM; in experiment [3] it was 14 ± 0.5 µM; in experiment [4] (Homo sapiens, HCT-116, 72 h), 11 ± 0.4 µM.

For the molecule `Cc1cc(S(=O)(=O)N=C2NCCN2Cc2ccccc2)c(SCc2nc(N)nc(N3CCN(c4ccc(F)c(Cl)c4)CC3)n2)cc1Cl` [Compound 65], the IC50 in experiment [1] is 23 ± 1 µM; in experiment [2], 11 ± 0.3 µM; in experiment [3] it was 11 ± 0.5 µM; in experiment [4] (Homo sapiens, HCT-116, 72 h) it was 7 ± 0.2 µM.

In the case of `COc1ccccc1N1CCN(c2nc(N)nc(CSc3cc(Cl)c(C)cc3S(=O)(=O)N=C3NCCN3Cc3ccccc3)n2)CC1` [Compound 66], the IC50 in experiment [1] amounted to 36 ± 2 µM; in experiment [2], 20 ± 1 µM; in experiment [3], 29 ± 1 µM; in experiment [4] (Homo sapiens, HCT-116, 72 h), 12 ± 0.4 µM.

Take `Cc1cc(S(=O)(=O)N=C2NCCN2Cc2ccccc2)c(SCc2nc(N)nc(N3CCN(Cc4ccccc4)CC3)n2)cc1Cl` [Compound 68]: the IC50 was found to be 32 ± 2 µM in experiment [1]; 14 ± 0.5 µM in experiment [2]; 16 ± 0.5 µM in experiment [3]; 16 ± 0.5 µM in experiment [4] (Homo sapiens, HCT-116, 72 h).

Take `Cc1cc(S(=O)(=O)N=C2NCCN2Cc2ccccc2)c(SCc2nc(N)nc(N3CCC(Cc4ccccc4)CC3)n2)cc1Cl` [Compound 72]: the IC50 in experiment [1] was found to be 28 ± 1 µM; in experiment [2] it was 17 ± 0.5 µM; in experiment [3], 9 ± 0.5 µM; in experiment [4] (Homo sapiens, HCT-116, 72 h), 6.5 ± 0.1 µM.

With `Cc1cc(S(=O)(=O)N=C2NCCN2Cc2ccccc2)c(SCc2nc(N)nc(N3CC=C(c4ccc(F)cc4)CC3)n2)cc1Cl` [Compound 73], the IC50 in experiment [1] is 29 ± 1 µM; in experiment [2] it was 14 ± 0.3 µM; in experiment [3] it was 7.5 ± 0.3 µM; in experiment [4] (Homo sapiens, HCT-116, 72 h), less than 6 µM; in experiment [4], 5.2 ± 0.2 µM. Besides, in experiment [2], the “Selectivity Index (SI) HeLa” value came to 2.0. In addition, the “Selectivity Index (SI) MCF-7” value in experiment [3] is listed as 3.8. Besides, the “Selectivity Index (SI) HCT-116” value in experiment [4] is given as 5.5.

For the molecule `Cc1cc(S(=O)(=O)N=C2NCCN2Cc2cccc3ccccc23)c(SCc2nc(N)nc(N3CCc4ccccc43)n2)cc1Cl` [Compound 74], the IC50 in experiment [1] was 81 ± 4 µM; in experiment [2], 13 ± 0.5 µM; in experiment [3], 12 ± 0.6 µM; in experiment [4] (Homo sapiens, HCT-116, 72 h) it was 44 ± 2 µM.

Take `Cc1cc(S(=O)(=O)N=C2NCCN2Cc2cccc3ccccc23)c(SCc2nc(N)nc(Nc3ccccc3)n2)cc1Cl` [Compound 75]: the IC50 in experiment [1] was found to be 110 ± 5 µM; in experiment [2], 77 ± 5 µM; in experiment [3] it was 8 ± 0.5 µM; in experiment [4] (Homo sapiens, HCT-116, 72 h), 30 ± 2 µM.

`Cc1cc(S(=O)(=O)N=C2NCCN2Cc2cccc3ccccc23)c(SCc2nc(N)nc(N(C)c3ccc(Cl)cc3)n2)cc1Cl` [Compound 76]: the IC50 worked out at 99 ± 4 µM in experiment [1]; 28 ± 2 µM in experiment [2]; 25 ± 1 µM in experiment [3]; 46 ± 1 µM in experiment [4] (Homo sapiens, HCT-116, 72 h).

With `Cc1cc(S(=O)(=O)N=C2NCCN2Cc2cccc3ccccc23)c(SCc2nc(N)nc(N3CCN(c4ccccc4)CC3)n2)cc1Cl` [Compound 77], the IC50 was found to be 220 ± 11 µM in experiment [1]; 110 ± 5 µM in experiment [2]; 29 ± 1 µM in experiment [3]; 40 ± 1 µM in experiment [4] (Homo sapiens, HCT-116, 72 h).

For the molecule `Cc1cc(S(=O)(=O)N=C2NCCN2Cc2cccc3ccccc23)c(SCc2nc(N)nc(N3CCN(c4ccc(C(F)(F)F)cc4)CC3)n2)cc1Cl` [Compound 78], the IC50 in experiment [1] amounted to 280 ± 14 µM; in experiment [2], 130 ± 8 µM; in experiment [3] it was 11 ± 0.5 µM; in experiment [4] (Homo sapiens, HCT-116, 72 h), 19.5 ± 0.6 µM.

In the case of `Cc1cc(S(=O)(=O)N=C2NCCN2Cc2cccc3ccccc23)c(SCc2nc(N)nc(N3CCN(Cc4ccccc4)CC3)n2)cc1Cl` [Compound 81], the IC50 in experiment [1] is 240 ± 12 µM; in experiment [2] it was 63 ± 1 µM; in experiment [3] it was 8 ± 0.5 µM; in experiment [4] (Homo sapiens, HCT-116, 72 h), 8.4 ± 0.3 µM.
